The subject of data set [1] is CL1-5 (human lung adenocarcinoma cells, EGFR wild type and resistant to gefitinib). Briefly: SRB cytotoxicity assay, CL1-5. To be noted: CL1-5, 72 h.
Data set [2] deals with CL1-0 (human lung adenocarcinoma cells, EGFR wild type and resistant to gefitinib). The data set is described as follows: SRB cytotoxicity assay, CL1-0. To be noted: CL1-0, 72 h.
The subject of data set [3] is H1975 cells. The data set is described as follows: BrdU incorporation (DNA replication) by flow cytometry. It is filed as cell-based, human. The following applies: H1975, treated 12, 24 or 48 h. How it is done:
Panel (A): A chart showing DNA replication in Compound 1-treated H1975 cells was inhibited. DNA histograms (BrdU incorporation vs. DNA content) of DMSO or compound 1-treated H1975 cells are shown at 12 to 48 hours. The H1975 cells were BrdU-pulsed (BD Pharmingen™ BrdU Flow Kit Staining) and analyzed by flow cytometry. Panel (B): A chart showing compound 1 decreased the replication fork number. The replication forks were analyzed by immunofluorescence staining with anti-MCM2 antibodies (see row labeled “MCM2” and “Merge with DAPI”) and DAPI (see row labeled “Merge with DAPI”). The quantification was made by counting signals obtained with the anti-MCM2 antibody using Image J software. (n=5 cells per group; original magnification, ×1000). Panel (C): A chart showing compound 1-treated H1975 cells have a prolonged S phase. A double thymidine block was performed, and the data were collected at the indicated time points.
To evaluate the effects on DNA replication of Compound 1, the levels of BrdU (5′-bromo′-2′-deoxyuridine) incorporation were examined. Exemplary results are shown in Panel (A) of FIG. 2. […] The content of BrdU was assessed using fluorescent antibodies. […] The samples were analyzed in a FACS caliber flow cytometer (Becton Dickinson, Sweden) for dot plot histogram analysis (BrdU incorporation vs. DNA content).
(Uptake of a labelled nucleoside into DNA is a usual measure of proliferation.)

Data set [4] deals with PC9 (human lung adenocarcinoma cells, EGFR del 19 mutation and sensitive to gefitinib). Briefly: SRB cytotoxicity assay, PC9. To be noted: 72 h. (Sulforhodamine B stains cellular protein and so reports cell mass.)
Data set [5] concerns Staphylococcus epidermidis. The data set is described as follows: MIC, broth micro dilution method. The class given is cell-based.
For data set [6], the system named is Streptococcus gallolyticus subsp. pasteurianus. Briefly: MIC, broth micro dilution method. The following applies: strain ATCC43144, S. bovis. It is filed as cell-based.
The subject of another data set is MCM complex (MCM2-MCM7). Briefly: Immunoblotting of MCM complex protein expression in H1975 cell lysates. The class given is cell-based, human. How it is done: To evaluate the effects of Compound 1 on modulating the expression of different MCM protein components, immunoblotting of DMSO or compound 1-treated (at 140 nM) H1975 cell lysates was performed. Exemplary results are shown in Panels (A)-(C) of FIG. 3. H1975 cell were treated with DMSO and compound 1 (140 nM). Compound 1-treated H1975 cells were harvested at 24 hours, 48 hours, and 72 hours, and the protein expression levels of MCM complex were analyzed by immunoblotting. […] (Panel (A) of FIG. 3.).
To evaluate the effects of Compound 1 on triggering MCM2, MCM6, and MCM7 degradation through transcriptional or post-translational regulation, compound 1-treated H1975 cells were harvested at 48 hours with or without 10 μM MG132 treatment for 12 hours; and the protein expression levels of MCM2/6/7 were examined by immunoblotting. […] It was observed that MG132 proteasome inhibitor may reverse the compound 1 effects on MCM2/6/7 protein expression levels.
(In general: In western blotting, separated proteins are transferred to a membrane and probed.)

For data set [7], the system named is H1975 cells. Briefly: Replication fork number by MCM2 immunofluorescence staining. The class given is cell-based, human. To be noted: H1975, 140 nM, 48 h. Here is the method:
In addition, to evaluate the effects of compound 1 on the progression of DNA replication, the number of replication forks was determined by MCM2 immunofluorescence staining in H1975 cells released from the G1 phase with DMSO and with compound 1 treatment. Exemplary results are shown in Panel (B) of FIG. 2. To evaluate the effects on DNA replication of compound 1, H1975 cells were arrested in G1 by contact inhibition. After 3 days, the cells were re-plated at a low density on cover slips and allowed to progress through the cell cycle. The cells were pulsed with 140 nM compound for 48 h and were fixed for 10 minutes at room temperature in 3.7% cold paraformaldehyde in PBS (pH 7.2), washed 3 times with PBS, and permeabilized for 10 minutes at room temperature in PBS containing 0.1% Triton X-100. The cells were blocked with PBS containing 3% bovine serum albumin and stained overnight at 4° C. with primary antibodies against MCM2, followed by incubation for 1 hour at 37° C. with Alexa Fluor 488 Goat Anti-Mouse IgG (Life Technologies Corporation), respectively. The cells were mounted onto microscope slides with ProLong Gold Antifade Reagent with DAPI (4′,6-Diamidino-2-phenylindole dihydrochloride) (Life Technologies Corporation) and then examined and photographed using Zeiss LSM 700 Confocal (Zeiss, Urbana, IL). […] (Panel (B) of FIG. 2)

The test system of a further data set is H1975 cell line. The data set is described as follows: Sulforhodamine B colorimetric (SRB) assay, H1975. To be noted: Homo sapiens, NCI-H1975, 72 h.
In data set [8] the test system is subcutaneous H1975 tumors. The data set is described as follows: H1975 xenograft tumor growth in athymic nude mice (compound 1). The class given is in vivo. The following applies: for average tumor size: day 27. Here is the method:
Panel (A): The structure of compound 1. Panel(B): A chart showing exemplary results for the cytotoxicity assay of Compound 1-treated cancer cells for 72 hours. […] Panel (C): Photos showing the different tumor sizes and TUNEL assay results between DMSO control and Compound 1-treated mice. H1975 (3×10^6) cells were subcutaneously injected into male nu/nu mice, and daily treated intraperitoneally with Compound I at indicated dose or DMSO for 4 weeks. During the treatment, tumor size and body weights were measured every 3 to 4 days; and the histology was confirmed by H&E staining (left lower panel of panel (C).
Exemplary results are shown in Panel (C) of FIG. 1. […] (Panel (C) of FIG. 1). In addition, the body weight of the mice was calculated when the tumor size was measured. Serum was also collected, and biological analysis in vitro was performed. […] Inhibition of tumor growth of Compound 1 with low cytotoxicity in vivo was observed.

The text below walks through data of patent US11919886B2, “4,9-dioxo-4,9-dihydronaphtho[2,3-B]furan-3-carboxamide derivatives and uses thereof for treating proliferative diseases and infectious diseases” (Academia Sinica, priority 2016, dated 2024).

Broadly, the IC50 is the concentration needed to halve the response being measured. Read a low IC50 as higher potency.

≈ marks a conversion by molar mass, not a printed value. Like-named read-outs stand apart in the source and are kept apart here.

As to `Cc1oc2c(c1C(=O)NCCCn1ccnc1)C(=O)c1ccccc1C2=O` [Compound 1, N-(3-(1H-Imidazol-1-yl)propyl)-2-methyl-4,9-dioxo-4,9-dihydronaphtho [2,3-b]furan-3-carboxamide], the IC50 was 280 nM in data set [1]; 123 nM in [2]; 37 nM in [4]; 77 nM in the data set with H1975 cell line (H1975, 72 h); 77 to 247 nM in the data set with H1975 cell line (H1975 cell line, SRB assay, 72 hours). Further, the “percentages of BrdU-positive cells vs DMSO control” value in the data set on H1975 cells [3] is “lower than those in the DMSO control group”. In addition, the MIC in data set [5] (read-out: MIC (μg/ml) 100%, strain ATCC12228, methicillin-susceptible) turned out to be 2 µg/mL (≈ 5.5 µM); in data set [5] (read-out: MIC (μg/ml) 100%, strain ATCC35984, methicillin-resistant), 1 µg/mL (≈ 2.75 µM); in data set [5] (strain ATCC12228, methicillin-susceptible, read-out: MIC (μg/ml) 50%), 0.5 µg/mL (≈ 1.38 µM); in [5] (strain ATCC35984, methicillin-resistant, read-out: MIC (μg/ml) 50%), 0.25 µg/mL (≈ 0.688 µM); in data set [6] (read-out: MIC (μg/ml) 100%) it was 4 µg/mL (≈ 11 µM); in data set [6] (read-out: MIC (μg/ml) 50%), 2 µg/mL (≈ 5.5 µM). For the same molecule, the “expression of MCM3, MCM4, or MCM5” value with MCM complex (MCM2-MCM7) (H1975, 140 nM, 24, 48, 72 hours) is on record as “lower only at 72 hours”. The “expression levels of MCM2, MCM6, and MCM7” value in the data set on MCM complex (MCM2-MCM7) (H1975, 140 nM, 24 hour and 72 hour) is “significantly decreased”. In addition, in the data set with MCM complex (MCM2-MCM7) (H1975, 24 hours), the “MCM protein levels and messenger RNA levels” value is listed as “substantial decrease in MCM protein levels without a change in their messenger RNA levels”. For the same molecule, the “number of the replication fork” value with H1975 cells [7] stood at 176.8±8.721. Further, the average tumor size in [8] (1 mg/kg daily intraperitoneal) amounted to 701.2±196.5 mm^3; in data set [8] (4 mg/kg daily intraperitoneal) it was 518.0±93.0 mm^3. In addition, in [8] (1 mg/kg or 4 mg/kg daily intraperitoneal, 4 weeks), the “body weight and serum biological analysis, control group vs compound treatment group” value is recorded as “Few differences”.
